Data as given in US10047051B2, “Substituted pyridines and method of use” (AbbVie S.á{acute over (.)}r.l., priority 2015, dated 2018).

Tests used:
Format in all cases: cell-based
G551D CFTR = G551D CFTR (Homo sapiens, UniProt P13569, G551D); assay: TECC assay, FRT-CFTR G551D protocol; conditions: FRT cells stably transfected with G551D CFTR, high expression cells, increase in Isc after forskolin
Method: For G551D recordings, Fischer Rat Thyroid (FRT) cells stably transfected with G551D CFTR (a low CFTR-G551D expressing cell line and a high expressing CFTR-G551D cell line from Rosalind Franklin University of Medicine and Science, North Chicago, Ill.) are plated on Transwell® supports (Costar 6.5 mm diameter, 0.4 μm pore size). The cells are grown for 8-10 days under liquid-liquid interface conditions prior to electrophysiological readings. For electrophysiological recording, the FRT-G551D cells are mounted in the TECC heating plate for electrophysiological measurement and kept at 37° C. The epithelia are bathed in HEPES buffered culturing medium without FBS on both the basolateral and apical sides. Apical amiloride is used to inhibit the endogenous ENaC currents while forkolin is applied on both apical and basolateral side to stimulate CFTR. After forskolin triggering, compounds are added on both sides to test their potential for increasing CFTR gating. Measurements are done during a 10 minute timeframe with recordings every 2 minutes. The increase in Isc is used as a measure for the increased CFTR activity, EC50 values can be generated by measuring impact of different concentrations of compound on Isc on the cells, for this purpose each transwell is treated with a different compound concentration. Inh-172, an inhibitor specific for CFTR, is used to test the specificity of the tested compounds.

CFTR G551D mutant = target: T1, CFTR G551D mutant (Homo sapiens, UniProt P13569, G551D); assay: YFP-halide influx assay for the CFTR-G551D mutation (HEK293 cells); conditions: forskolin 10.67 μM
T1 construct: expressed in transfected cells; host or cells: HEK293 cells, reverse transfection with plasmids
T1 sequence (P13569 whole entry G551D): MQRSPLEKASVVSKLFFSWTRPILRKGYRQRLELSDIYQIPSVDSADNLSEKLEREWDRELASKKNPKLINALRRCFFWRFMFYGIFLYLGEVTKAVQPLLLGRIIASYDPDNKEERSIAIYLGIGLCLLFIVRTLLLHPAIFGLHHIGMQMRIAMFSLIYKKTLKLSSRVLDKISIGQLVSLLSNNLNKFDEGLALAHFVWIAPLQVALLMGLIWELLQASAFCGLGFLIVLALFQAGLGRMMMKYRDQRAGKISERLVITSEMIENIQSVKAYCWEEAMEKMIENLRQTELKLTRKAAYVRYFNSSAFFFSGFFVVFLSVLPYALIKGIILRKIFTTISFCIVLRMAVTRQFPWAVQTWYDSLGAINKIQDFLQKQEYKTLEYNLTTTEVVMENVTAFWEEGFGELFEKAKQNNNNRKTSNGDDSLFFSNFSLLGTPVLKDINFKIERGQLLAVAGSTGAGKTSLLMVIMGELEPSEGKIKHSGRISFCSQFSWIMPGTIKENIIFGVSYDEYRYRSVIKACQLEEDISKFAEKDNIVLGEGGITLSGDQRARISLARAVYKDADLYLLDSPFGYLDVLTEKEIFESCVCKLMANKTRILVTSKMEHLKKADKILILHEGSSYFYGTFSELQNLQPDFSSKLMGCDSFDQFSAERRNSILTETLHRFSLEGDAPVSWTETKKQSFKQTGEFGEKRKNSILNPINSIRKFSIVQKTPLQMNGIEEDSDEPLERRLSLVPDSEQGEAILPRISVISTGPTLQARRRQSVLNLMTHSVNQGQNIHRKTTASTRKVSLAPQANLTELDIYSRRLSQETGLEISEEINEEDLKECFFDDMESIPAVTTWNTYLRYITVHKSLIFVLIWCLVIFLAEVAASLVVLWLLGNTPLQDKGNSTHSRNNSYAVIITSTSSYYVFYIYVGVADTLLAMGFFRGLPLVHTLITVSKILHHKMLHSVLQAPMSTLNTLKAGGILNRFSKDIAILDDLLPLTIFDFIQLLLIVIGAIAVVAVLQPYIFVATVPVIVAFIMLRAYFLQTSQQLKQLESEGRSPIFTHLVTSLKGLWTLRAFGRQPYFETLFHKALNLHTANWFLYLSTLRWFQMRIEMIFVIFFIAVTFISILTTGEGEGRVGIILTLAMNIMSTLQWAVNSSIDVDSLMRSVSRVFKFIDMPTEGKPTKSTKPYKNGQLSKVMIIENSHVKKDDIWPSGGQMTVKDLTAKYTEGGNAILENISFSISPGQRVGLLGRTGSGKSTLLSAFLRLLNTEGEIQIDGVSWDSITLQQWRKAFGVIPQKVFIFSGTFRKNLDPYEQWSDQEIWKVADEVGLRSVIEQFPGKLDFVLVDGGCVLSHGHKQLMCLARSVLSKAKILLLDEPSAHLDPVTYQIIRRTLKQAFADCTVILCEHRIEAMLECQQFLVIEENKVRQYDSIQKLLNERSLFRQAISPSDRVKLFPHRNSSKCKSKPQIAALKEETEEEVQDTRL
In short: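 Channel opening read as I⁻-driven quenching of a YFP H148Q/I152L/F47L reporter over 7 s post-injection, expressed as 1−F/F0 and fitted against concentration for EC50. Cells were HEK293 co-transfected at seeding with G551D CFTR plus reporter, then grown 24 h at 37 °C, 5% CO2.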

CFTR ΔF508 mutant = target: T2, CFTR ΔF508 mutant (Homo sapiens, UniProt P13569, DEL508-508); assay: YFP-halide influx assay for the CFTR-ΔF508 mutation (CFBE41o- cells); conditions: forskolin 10.67 μM; for EC50: from (1−F/F0) vs concentration plot
T2 construct: expressed in transfected cells; host or cells: CFBE41o- cells, adenoviral transduction
T2 sequence (P13569 with tags, fused parts or gaps DEL508-508): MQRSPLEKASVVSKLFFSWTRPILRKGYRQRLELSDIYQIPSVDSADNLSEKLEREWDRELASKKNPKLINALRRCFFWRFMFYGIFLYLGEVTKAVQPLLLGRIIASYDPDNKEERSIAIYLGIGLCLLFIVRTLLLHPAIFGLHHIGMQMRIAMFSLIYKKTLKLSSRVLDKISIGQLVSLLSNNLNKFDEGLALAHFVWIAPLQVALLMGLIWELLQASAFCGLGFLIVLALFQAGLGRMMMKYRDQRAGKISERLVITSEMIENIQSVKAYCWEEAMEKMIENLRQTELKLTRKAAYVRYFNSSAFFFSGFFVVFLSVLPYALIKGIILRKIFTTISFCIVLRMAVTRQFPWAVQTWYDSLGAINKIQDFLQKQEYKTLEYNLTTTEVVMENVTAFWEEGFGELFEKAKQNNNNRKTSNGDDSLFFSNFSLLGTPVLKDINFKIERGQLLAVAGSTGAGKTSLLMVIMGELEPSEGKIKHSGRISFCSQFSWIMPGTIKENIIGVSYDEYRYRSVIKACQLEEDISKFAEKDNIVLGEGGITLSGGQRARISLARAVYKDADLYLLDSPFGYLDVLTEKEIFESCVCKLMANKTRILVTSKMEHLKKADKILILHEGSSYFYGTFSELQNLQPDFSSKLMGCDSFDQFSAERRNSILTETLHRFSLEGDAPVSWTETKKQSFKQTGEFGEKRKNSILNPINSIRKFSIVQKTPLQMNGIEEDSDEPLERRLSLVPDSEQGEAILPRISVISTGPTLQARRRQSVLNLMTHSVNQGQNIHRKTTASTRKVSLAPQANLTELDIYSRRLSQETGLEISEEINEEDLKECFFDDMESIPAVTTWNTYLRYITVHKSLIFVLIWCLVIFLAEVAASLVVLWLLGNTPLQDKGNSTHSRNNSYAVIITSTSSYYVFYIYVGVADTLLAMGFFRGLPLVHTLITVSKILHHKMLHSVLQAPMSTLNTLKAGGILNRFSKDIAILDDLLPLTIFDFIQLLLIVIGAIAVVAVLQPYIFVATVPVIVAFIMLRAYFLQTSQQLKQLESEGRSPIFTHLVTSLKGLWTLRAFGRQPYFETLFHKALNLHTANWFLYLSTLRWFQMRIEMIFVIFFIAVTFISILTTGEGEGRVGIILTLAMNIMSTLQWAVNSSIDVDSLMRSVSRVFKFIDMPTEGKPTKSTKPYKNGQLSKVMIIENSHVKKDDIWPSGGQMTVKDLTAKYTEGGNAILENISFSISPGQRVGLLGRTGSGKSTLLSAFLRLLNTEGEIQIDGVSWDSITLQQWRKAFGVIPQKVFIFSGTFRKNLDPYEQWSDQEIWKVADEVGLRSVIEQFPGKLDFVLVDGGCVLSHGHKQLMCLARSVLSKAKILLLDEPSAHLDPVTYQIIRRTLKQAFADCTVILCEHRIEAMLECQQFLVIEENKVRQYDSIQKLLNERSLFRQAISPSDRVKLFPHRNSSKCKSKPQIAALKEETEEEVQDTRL
In short: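 EC50 derived from plotting 1−F/F0 (fluorescence 36 s after iodide injection over pre-injection value) against compound concentration. Cells: CFBE41o- transduced with ΔF508-CFTR and YFP quench reporter, corrected 24 h at 27° C or by a CFTR modulator at 37° C.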

CFTR-G1349D = target: T3, CFTR-G1349D (Homo sapiens, UniProt P13569, G1349D); assay: YFP-halide influx assay for the CFTR-G1349D
T3 construct: expressed in transfected cells
T3 sequence (P13569 whole entry G1349D): as the sequence (P13569 whole entry G551D) above, with D551G, G1349D counted along it
Source text: (§1) The YFP halide influx assay measured the functionality of the cystic fibrosis Transmembrane Conductance regulator (CFTR) channels. The assay was used to evaluate the capacity of compounds to increase the channel opening of existing mutant CFTR channels in the membrane. It makes use of the observation that the yellow fluorescent protein (YFP) variant YFP H148Q, I152L, F47L has its fluorescence substantially quenched by halide ions like Cl^− and I^− (Galietta, L. J. V., Haggie, P. M., Verkman, A. S., 2001. Green fluorescent protein-based halide indicators with improved chloride and iodide affinities. FEBS Lett. 499, 220-224. doi:10.1016/S0014-5793(01)02561-3).
(§2) For this purpose, HEK293-cells were seeded in 96 well plates. During seeding, the cells were reverse-transfected with plasmid vectors that direct the expression of the CFTR G551D mutant and of the YFP reporter. Cells were incubated at 37° C., 5% CO2 for 24 hours so as to allow for sufficient expression of the CFTR protein.
(§3) The I^−-induced quenching of fluorescence was recorded immediately after injection of I^− for 7 seconds. The capacity of a compound to increase the channel opening was directly correlated with the decrease in fluorescence, and was expressed as (1−(fluorescence after 7 seconds (F)/fluorescence before injection (F0))) and an EC50 was derived from a (1−F/F0) vs compound concentration plot.
(§4) Similar YHA assays were developed for other channel gating defective or channel conductance defective CFTR mutants to determine effect of compound on channel activity. Examples of mutants are G178R, G1349D, S549N, R117H, R334W. This assay is also used for additional class I CFTR mutants, including G542X, W1282X; class II mutants including N1303K, and for class III mutants including S1251N; or wild-type CFTR.

CFTR-G178R = target: T4, CFTR-G178R (Homo sapiens, UniProt P13569, G178R); assay: YFP-halide influx assay for the CFTR-G178R
T4 construct: expressed in transfected cells
T4 sequence (P13569 whole entry G178R): as the sequence (P13569 whole entry G551D) above, with G178R, D551G counted along it
Source text: as §1, §2, §3, §4

CFTR-S549N = target: T5, CFTR-S549N (Homo sapiens, UniProt P13569, S549N); assay: YFP-halide influx assay for the CFTR-S549N; design: % Activation: concentration or dose not given beside the values
T5 construct: expressed in transfected cells
T5 sequence (P13569 whole entry S549N): as the sequence (P13569 whole entry G551D) above, with S549N, D551G counted along it
Source text: as §1, §2, §3, §4

CFTR-R117H = target: T6, CFTR-R117H (Homo sapiens, UniProt P13569, R117H); assay: YFP-halide influx assay for the CFTR-R117H
T6 construct: expressed in transfected cells
T6 sequence (P13569 whole entry R117H): as the sequence (P13569 whole entry G551D) above, with R117H, D551G counted along it
Source text: as §1, §2, §3, §4

Sequence of G551D CFTR (P13569 whole entry G551D): as the sequence (P13569 whole entry G551D) above

Structure (SMILES)	EC50 (G551D CFTR) [µM]	% Activation (CFTR G551D mutant) [%]	EC50 (CFTR G551D mutant) [µM]	% Activation (CFTR ΔF508 mutant) [%]	EC50 (CFTR ΔF508 mutant) [µM]	% Activation (CFTR-G1349D) [%]	EC50 (CFTR-G1349D) [µM]	% Activation (CFTR-G178R) [%]	EC50 (CFTR-G178R) [µM]	% Activation (CFTR-S549N) [%]	EC50 (CFTR-S549N) [µM]	% Activation (CFTR-R117H) [%]	EC50 (CFTR-R117H) [µM]
Nc1cc(S(=O)(=O)c2ccc(OC(F)(F)F)cc2)cnc1C(=O)N[C@@H]1CCCC[C@H]1O (racemic) [Compound 17, rac-3-amino-N-[(1R,2R)-2-hydroxycyclohexyl]-5-{[4-(trifluoromethoxy)phenyl]sulfonyl}pyridine-2-carboxamide]	1.13	82.7	1.64	113.0	0.0088								
COCC(O)CNC(=O)c1ncc(S(=O)(=O)c2ccc(OC(F)(F)F)cc2)cc1N (stereo not shown) [Compound 3, 3-amino-N-(2-hydroxy-3-methoxypropyl)-5-{[4-(trifluoromethoxy)phenyl]sulfonyl}pyridine-2-carboxamide]	1.98	73.9	1.98	109.7	0.0177	83.2	0.291	98.2	0.392	91.8	0.839	102.0	0.451
CC(C)(O)CNC(=O)c1ncc(S(=O)(=O)c2ccc(C(F)(F)F)cc2)cc1N [Compound 11, 3-amino-N-(2-hydroxy-2-methylpropyl)-5-{[4-(trifluoromethyl)phenyl]sulfonyl}pyridine-2-carboxamide]	1.35	75.7	0.835	113.5	0.0217	90.4	1.6	95.3	0.442	84.1	0.945	90.4	0.296
Nc1cc(S(=O)(=O)c2ccc(OC(F)(F)F)cc2)cnc1C(=O)NCC1(O)CC1 [Compound 15, 3-amino-N-[(1-hydroxycyclopropyl)methyl]-5-{[4-(trifluoromethoxy)phenyl]sulfonyl}pyridine-2-carboxamide]	0.669	69.3	0.361	109.0	0.0026								
CC(C)(CO)CNC(=O)c1ncc(S(=O)(=O)c2ccc(OC(F)(F)F)cc2)cc1N [Compound 18, 3-amino-N-(3-hydroxy-2,2-dimethylpropyl)-5-{[4-(trifluoromethoxy)phenyl]sulfonyl}pyridine-2-carboxamide]	1.43	79.2	> 3.33	109.1	0.0431								
CC(O)(CNC(=O)c1ncc(S(=O)(=O)c2ccc(F)cc2)cc1N)C(F)(F)F (stereo not shown) [Compound 19, 3-amino-5-[(4-fluorophenyl)sulfonyl]-N-(3,3,3-trifluoro-2-hydroxy-2-methylpropyl)pyridine-2-carboxamide]	5.48	63.2	1.08	113.3	0.0164	84.3	0.659	89.9	0.561	79.6	1.61	90.8	0.186
C[C@@H](O)CNC(=O)c1ncc(S(=O)(=O)c2ccc(OC(F)(F)F)cc2)cc1N [Compound 20, 3-amino-N-[(2R)-2-hydroxypropyl]-5-{[4-(trifluoromethoxy)phenyl]sulfonyl}pyridine-2-carboxamide]	3.7	64.8	0.893	98.5	0.0297								
CC(CO)CNC(=O)c1ncc(S(=O)(=O)c2ccc(OC(F)(F)F)cc2)cc1N (stereo not shown) [Compound 24, 3-amino-N-(3-hydroxy-2-methylpropyl)-5-{[4-(trifluoromethoxy)phenyl]sulfonyl}pyridine-2-carboxamide]	2.83	52.2	0.423	106.6	0.0214								
CC(C)(O)C1CN(C(=O)c2ncc(S(=O)(=O)c3ccc(C(F)(F)F)cc3)cc2N)C1 [Compound 165, (3-amino-5-{[4-(trifluoromethyl)phenyl]sulfonyl}pyridin-2-yl)[3-(2-hydroxypropan-2-yl)azetidin-1-yl]methanone]	0.116	55.0	0.287	115.2	0.0109	87.6	0.214					94.2	0.0928
Nc1cc(S(=O)(=O)c2ccc(C(F)(F)F)cc2)cnc1C(=O)NCC(F)(F)CO [Compound 241, 3-amino-N-(2,2-difluoro-3-hydroxypropyl)-5-{[4-(trifluoromethyl)phenyl]sulfonyl}pyridine-2-carboxamide]		65.9	0.675	117.0	0.0116	71.0	1.11	84.5	0.502	90.7	0.691	103.0	0.608
Nc1cc(S(=O)(=O)c2ccc(F)cc2)c(-c2ccc(F)cc2)nc1C(=O)NC[C@@H](O)C(F)(F)F [Compound 259, 3-amino-6-(4-fluorophenyl)-5-[(4-fluorophenyl)sulfonyl]-N-[(2R)-3,3,3-trifluoro-2-hydroxypropyl]pyridine-2-carboxamide]		92.6	1.12	102.5	0.0043	91.0	0.173	97.2	0.149	105.0	0.0744	126.0	0.225
Nc1cc(S(=O)(=O)c2ccc(OC(F)(F)F)cc2)cnc1C(=O)Nc1cc[nH]n1 [Compound 291, 3-amino-N-(1H-pyrazol-3-yl)-5-{[4-(trifluoromethoxy)phenyl]sulfonyl}pyridine-2-carboxamide]		44.7	0.242	98.2	0.0055	79.8	0.149	79.3	0.109	75.6	0.0921	74.2	0.155
